From PMC9030947, “Identification of Novel Natural Product Inhibitors against Matrix Metalloproteinase 9 Using Quantum Mechanical Fragment Molecular Orbital-Based Virtual Screening Methods” (International Journal of Molecular Sciences, 2022)

Biological target: T1, MMP-9 (Homo sapiens, UniProt P14780)
T1 construct: gene MMP9; Purified recombinant human MMP-9 protein with a His-tag (catalog number 10327-H08H)
Assay: SPR (Biacore […], MMP-9 immobilized by amine coupling)
Format: binding

T1 sequence (P14780 107-707): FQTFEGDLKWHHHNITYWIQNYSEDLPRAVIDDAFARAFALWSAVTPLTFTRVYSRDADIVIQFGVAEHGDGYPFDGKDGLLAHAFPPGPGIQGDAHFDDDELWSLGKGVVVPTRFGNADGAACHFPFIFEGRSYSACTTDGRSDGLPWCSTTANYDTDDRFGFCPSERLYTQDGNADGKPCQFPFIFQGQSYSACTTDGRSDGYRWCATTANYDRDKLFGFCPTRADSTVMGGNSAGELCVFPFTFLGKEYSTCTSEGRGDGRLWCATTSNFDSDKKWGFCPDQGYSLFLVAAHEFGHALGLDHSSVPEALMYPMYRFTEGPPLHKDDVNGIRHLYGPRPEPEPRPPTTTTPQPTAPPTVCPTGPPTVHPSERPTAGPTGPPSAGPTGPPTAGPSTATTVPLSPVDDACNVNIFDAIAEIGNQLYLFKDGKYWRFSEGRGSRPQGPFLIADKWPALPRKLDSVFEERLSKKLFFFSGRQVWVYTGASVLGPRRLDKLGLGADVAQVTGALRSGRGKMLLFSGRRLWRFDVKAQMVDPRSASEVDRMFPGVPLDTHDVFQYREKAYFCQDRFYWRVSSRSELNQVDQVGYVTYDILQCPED

Compound	Kd [µM]
COc1cc(O)c2c(=O)cc(-c3ccc(O)cc3)oc2c1 [compound 10, genkwanin]	0.614
COc1cc2c(cc1O)-c1c(OC)c(O)cc3c1[C@H](C2)NCC3 [compound 9, laetanine]	21.6
